Target: T1, Dimer of Gag-Pol polyprotein [489-587] (Human immunodeficiency virus 1, UniProt P12497)
T1 construct: 489-587
Assay: Protease Inhibition Assay
Conditions: pH 5.5; 30 °C
Experimental: Sensitivity of HIV-1 protease activity to protease inhibitors was determined by a peptide substrate cleavage assay. Protease products were analyzed on a reverse-phase high-pressure liquid chromatograph.

SMILES	IC50 [nM]
CC(C)(C)NC(=O)C1C[C@@H]2CCCC[C@@H]2CN1C[C@@H](O)[C@H](Cc1ccccc1)NC(=O)O[C@@H]1C=CCOC1 (stereo partly drawn) [(3R)-3,6-dihydro-2H-pyran-3-yl N-[(2S,3R)-4-[(4aS,8aS)-3-(tert-butylcarbamoyl)-decahydroisoquinolin-2-yl]-3-hydroxy-1-phenylbutan-2-yl]carbamate]	48.9
CC(C)(C)NC(=O)C1C[C@@H]2CCCC[C@@H]2CN1C[C@@H](O)[C@H](Cc1ccccc1)NC(=O)O[C@@H]1CCCOC1 (stereo partly drawn) [(3R)-oxan-3-yl N-[(2S,3R)-4-[(4aS,8aS)-3-(tert-butylcarbamoyl)-decahydroisoquinolin-2-yl]-3-hydroxy-1-phenylbutan-2-yl]carbamate]	308
O=C(N[C@@H](Cc1ccccc1)[C@@H](O)C[C@@H](Cc1ccccc1)C(=O)N[C@H]1c2ccccc2C[C@H]1O)O[C@@H]1CCCOC1 [(3R)-oxan-3-yl N-[(2S,3S,5R)-5-benzyl-3-hydroxy-5-{[(1S,2R)-2-hydroxy-2,3-dihydro-1H-inden-1-yl]carbamoyl}-1-phenylpentan-2-yl]carbamate]	< 0.03
CC(C)(C)NC(=O)C1C[C@@H]2CCCC[C@@H]2CN1C[C@@H](O)[C@H](Cc1ccccc1)NC(=O)O[C@H]1C=CCOC1 (stereo partly drawn) [(3S)-3,6-dihydro-2H-pyran-3-yl N-[(2S,3R)-4-[(4aS,8aS)-3-(tert-butylcarbamoyl)-decahydroisoquinolin-2-yl]-3-hydroxy-1-phenylbutan-2-yl]carbamate]	314
CC(C)(C)NC(=O)C1C[C@@H]2CCCC[C@@H]2CN1C[C@@H](O)[C@H](Cc1ccccc1)NC(=O)O[C@H]1CCCOC1 (stereo partly drawn) [(3S)-oxan-3-yl N-[(2S,3R)-4-[(4aS,8aS)-3-(tert-butylcarbamoyl)-decahydroisoquinolin-2-yl]-3-hydroxy-1-phenylbutan-2-yl]carbamate]	392
O=C(N[C@@H](Cc1ccccc1)[C@@H](O)C[C@@H](Cc1ccccc1)C(=O)N[C@H]1c2ccccc2C[C@H]1O)O[C@H]1CCCOC1 [(3S)-oxan-3-yl N-[(2S,3S,5R)-5-benzyl-3-hydroxy-5-{[(1S,2R)-2-hydroxy-2,3-dihydro-1H-inden-1-yl]carbamoyl}-1-phenylpentan-2-yl]carbamate]	< 0.03
O=C(N[C@@H](Cc1ccccc1)[C@@H](O)C[C@@H](Cc1ccccc1)C(=O)N[C@H]1c2ccccc2C[C@H]1O)O[C@H]1CCOC1 [(3S)-oxolan-3-yl N-[(2S,3S,5R)-5-benzyl-3-hydroxy-5-{[(1S,2R)-2-hydroxy-2,3-dihydro-1H-inden-1-yl]carbamoyl}-1-phenylpentan-2-yl]carbamate]	< 0.03
CC(C)(C)NC(=O)C1C[C@@H]2CCCC[C@@H]2CN1C[C@@H](O)[C@H](Cc1ccccc1)NC(=O)OC(C)(C)C (stereo partly drawn) [tert-butyl N-[(2S,3R)-4-[(4aS,8aS)-3-(tert-butylcarbamoyl)-decahydroisoquinolin-2-yl]-3-hydroxy-1-phenylbutan-2-yl]carbamate]	> 3000

Reference: BindingDB's records for doi:10.1021/jm00054a015 (Merck Research Laboratories, 1993)
